Data taken from US7425640B2, “Substituted 5-carboxyamide pyrazoles and [1,2,4]triazoles as antiviral agents” (priority 2004, dated 2008).

Molecular target: HCV RNA-dependent RNA polymerase NS5B (Δ21) (Hepatitis C virus genotype 1b, UniProt P26663)
Experiment: Assay for HCV RNA-dependent RNA polymerase activity (SPA, [3H]-GTP incorporation)
Assay type: biochemical
Conditions: read-out: Δ21 Activity (IC50 μM); 50 nM NS5B (Δ21), class symbols
Protocol: Inhibitory activity of the present compounds against HCV RNA-dependent RNA polymerase was assayed according to the methods disclosed in United States Patent Application US2004/038993, content of which is incorporated herein by reference; and those described in Ferrari, E.; Wright-Minogue, J.; Fang, J. W. S.; Baroudy, B. M.; Lau, J. Y. N.; Hong, Z. J. Virol. 1999, 73, 1649.
Briefly, 50 μl reactions containing 20 mM HEPES (pH 7.3), 7.5 mM DTT, 20 units/ml RNasIN, 0.5 μg/ml biotinylated oligoG12, 5 μg/ml polyC, 5 μM GTP, 20 μCi/ml [^3H]-GTP, 10 mM MgCl2, 60 mM NaCl, 100 μg/ml BSA, and 50 nM NS5B (Δ21) were incubated at room temperature for three hours in 96-well plates with or without test compounds. Assay was terminated by the addition of 50 μl 10 mg/ml streptavidin-coated SPA beads supplemented with 100 mM EDTA, and the incorporation of labeled GTP determined by a TopCount Scintillation Counter. IC50 values were calculated from single experiments using 11 serial 2-fold dilutions (0.05-50 μM), and data were considered reliable only when the IC50 value of a positive internal control was within standard deviation range.

HCV RNA-dependent RNA polymerase NS5B (Δ21), sequence (P26663 2420-2989, stated change not applied): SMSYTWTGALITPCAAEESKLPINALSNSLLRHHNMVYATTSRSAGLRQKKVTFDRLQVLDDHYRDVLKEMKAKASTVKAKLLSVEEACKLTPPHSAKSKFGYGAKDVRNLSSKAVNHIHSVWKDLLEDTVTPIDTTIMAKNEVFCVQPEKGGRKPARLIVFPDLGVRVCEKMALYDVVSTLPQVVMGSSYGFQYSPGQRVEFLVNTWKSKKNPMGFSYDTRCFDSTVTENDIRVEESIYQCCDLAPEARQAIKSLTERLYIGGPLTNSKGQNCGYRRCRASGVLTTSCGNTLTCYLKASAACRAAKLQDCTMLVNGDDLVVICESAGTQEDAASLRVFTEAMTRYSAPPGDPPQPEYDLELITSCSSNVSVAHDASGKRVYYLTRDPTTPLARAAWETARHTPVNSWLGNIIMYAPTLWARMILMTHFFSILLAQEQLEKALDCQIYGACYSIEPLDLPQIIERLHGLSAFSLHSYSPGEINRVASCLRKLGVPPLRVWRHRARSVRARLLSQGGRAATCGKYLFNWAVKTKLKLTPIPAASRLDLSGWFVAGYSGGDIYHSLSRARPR

SMILES | IC50 [µM]
COc1ccc(OC)c(S(=O)(=O)Nc2cc(C(=O)N[C@H]3CCCC[C@@H]3OCc3ccccc3)n(CC(=O)N[C@H]3CCCC[C@@H]3OCc3ccccc3)n2)c1 [Compound 97] | 0.1 to 1
CC(NC(=O)c1cc(C(=O)N[C@H]2CCCC[C@@H]2OCc2ccccc2)n(CC(=O)N[C@H]2CCCC[C@@H]2OCc2ccccc2)n1)c1ccccc1 (stereo partly shown) [Compound 95] | 0.1 to 1
CC(CNC(=O)c1cc(C(=O)N[C@H]2CCCC[C@@H]2OCc2ccccc2)n(CC(=O)N[C@H]2CCCC[C@@H]2OCc2ccccc2)n1)c1ccccc1 (stereo partly shown) [Compound 117] | 0.1 to 1
CN(C)c1cccc2c(S(=O)(=O)NCCNC(=O)c3cc(C(=O)N[C@H]4CCCC[C@@H]4OCc4ccccc4)n(CC(=O)N[C@H]4CCCC[C@@H]4OCc4ccccc4)n3)cccc12 [Compound 64] | 0.1 to 1
CN(C(=O)c1cc(C(=O)O)nn1CC(=O)N[C@H]1CCCC[C@@H]1OCc1ccccc1)[C@H]1CCCC[C@@H]1OCc1ccccc1 [Compound 133] | 0.1 to 1
CC(CCc1ccccc1)NC(=O)c1cc(C(=O)N[C@H]2CCCC[C@@H]2OCc2ccccc2)n(CC(=O)N[C@H]2CCCC[C@@H]2OCc2ccccc2)n1 (stereo partly shown) [Compound 101] | 0.1 to 1
O=C(Cn1nc(C(=O)NOCC2CC2)cc1C(=O)N[C@H]1CCCC[C@@H]1OCc1ccccc1)N[C@H]1CCCC[C@@H]1OCc1ccccc1 [Compound 72] | 0.1 to 1
O=C(Cn1nc(NC(=O)NCc2ccccc2)cc1C(=O)N[C@H]1CCCC[C@@H]1OCc1ccccc1)N[C@H]1CCCC[C@@H]1OCc1ccccc1 [Compound 121] | 0.1 to 1
COC(=O)CCCCCNC(=O)c1cc(C(=O)N[C@H]2CCCC[C@@H]2OCc2ccccc2)n(CC(=O)N[C@H]2CCCC[C@@H]2OCc2ccccc2)n1 [Compound 149] | 0.1 to 1
CC(C)(C)ONC(=O)c1cc(C(=O)N[C@H]2CCCC[C@@H]2OCc2ccccc2)n(CC(=O)N[C@H]2CCCC[C@@H]2OCc2ccccc2)n1 [Compound 116] | 0.1 to 1
O=C(O)CNC(=O)c1cc(C(=O)N[C@H]2CCCC[C@@H]2OCc2ccccc2)n(CC(=O)N[C@H]2CCCC[C@@H]2OCc2ccccc2)n1 [Compound 153] | 0.1 to 1
CCOC(=O)c1cc(C(=O)N[C@H]2CCCC[C@@H]2OCc2ccccc2)n(CC(=O)Nc2cc(C)ccc2OCC2CCCC2)n1 [Compound 99] | 0.1 to 1
O=C(Cn1nc(C(=O)N2CCc3ccccc3C2)cc1C(=O)N[C@H]1CCCC[C@@H]1OCc1ccccc1)N[C@H]1CCCC[C@@H]1OCc1ccccc1 [Compound 51] | 0.1 to 1
CC(C)(C)OC(=O)c1cc(C(=O)N[C@H]2CCCC[C@@H]2OCc2ccccc2)n(CC(=O)N[C@H]2CCCC[C@@H]2OCc2ccccc2)n1 [Compound 65] | 0.1 to 1
CC(C)(C)OC(=O)CNC(=O)c1cc(C(=O)N[C@H]2CCCC[C@@H]2OCc2ccccc2)n(CC(=O)N[C@H]2CCCC[C@@H]2OCc2ccccc2)n1 [Compound 105] | 0.1 to 1
O=C(Cn1nc(C(=O)NCCc2cccc(Cl)c2)cc1C(=O)N[C@H]1CCCC[C@@H]1OCc1ccccc1)N[C@H]1CCCC[C@@H]1OCc1ccccc1 [Compound 94] | 0.1 to 1
O=C(Cn1nc(NS(=O)(=O)c2cc(Cl)ccc2Cl)cc1C(=O)N[C@H]1CCCC[C@@H]1OCc1ccccc1)N[C@H]1CCCC[C@@H]1OCc1ccccc1 [Compound 96] | 0.1 to 1
O=C(Cn1nc(C(=O)NC2CC2)cc1C(=O)N[C@H]1CCCC[C@@H]1OCc1ccccc1)N[C@H]1CCCC[C@@H]1OCc1ccccc1 [Compound 122] | 0.1 to 1
O=C(Cn1nc(C(=O)NCCCc2ccccc2)cc1C(=O)N[C@H]1CCCC[C@@H]1OCc1ccccc1)N[C@H]1CCCC[C@@H]1OCc1ccccc1 [Compound 104] | 0.1 to 1
CN(Cc1cccc2ccccc12)C(=O)c1cc(C(=O)N[C@H]2CCCC[C@@H]2OCc2ccccc2)n(CC(=O)N[C@H]2CCCC[C@@H]2OCc2ccccc2)n1 [Compound 130] | 0.1 to 1
CNC(=O)c1cc(C(=O)N[C@H]2CCCC[C@@H]2OCc2ccccc2)n(CC(=O)N[C@H]2CCCC[C@@H]2OCc2ccccc2)n1 [Compound 145] | 0.1 to 1
O=C(Cn1nc(CO)cc1C(=O)N[C@H]1CCCC[C@@H]1OCc1ccccc1)N[C@H]1CCCC[C@@H]1OCc1ccccc1 [Compound 161] | 0.1 to 1
O=C(Cn1nc(NS(=O)(=O)c2ccc([N+](=O)[O-])cc2)cc1C(=O)N[C@H]1CCCC[C@@H]1OCc1ccccc1)N[C@H]1CCCC[C@@H]1OCc1ccccc1 [Compound 85] | 0.1 to 1
CCOC(=O)c1cc(C(=O)N[C@H]2CCCC[C@@H]2OCc2ccccc2)n(CC(=O)N[C@H]2CCCC[C@@H]2OCc2ccccc2)n1 [Compound 49] | 0.1 to 1
O=C(Cn1nc(C(=O)NCc2ccc(Cl)cc2Cl)cc1C(=O)N[C@H]1CCCC[C@@H]1OCc1ccccc1)N[C@H]1CCCC[C@@H]1OCc1ccccc1 [Compound 148] | 0.1 to 1
O=C(Cn1nc(C(=O)N2CCOCC2)cc1C(=O)N[C@H]1CCCC[C@@H]1OCc1ccccc1)N[C@H]1CCCC[C@@H]1OCc1ccccc1 [Compound 150] | 0.1 to 1
CN(C)c1cccc2c(S(=O)(=O)Nc3cc(C(=O)N[C@H]4CCCC[C@@H]4OCc4ccccc4)n(CC(=O)N[C@H]4CCCC[C@@H]4OCc4ccccc4)n3)cccc12 [Compound 113] | 0.1 to 1
Cc1ccc(OCc2ccccc2)c(NC(=O)c2cc(C(N)=O)nn2CC(=O)N[C@H]2CCCC[C@@H]2OCc2ccccc2)c1 [Compound 98] | 0.1 to 1

Same assay, conditions: Δ21 Activity (IC50 μM), 50 nM NS5B (Δ21), class symbols

SMILES | IC50 [µM]
O=C(Cn1nc(C(=O)O)cc1C(=O)Nc1cc(C(F)(F)F)ccc1OCc1ccccc1)N[C@H]1CCCC[C@@H]1OCc1ccccc1 [Compound 14] | < 0.05
Cc1ccc(OCC2CCCCC2)c(NC(=O)c2cc(C(=O)O)nn2CC(=O)N[C@H]2CCCC[C@@H]2OCc2ccccc2)c1 [Compound 5] | < 0.05
N#Cc1ccc(S(=O)(=O)Nc2cc(C(=O)N[C@H]3CCCC[C@@H]3OCc3ccccc3)n(CC(=O)N[C@H]3CCCC[C@@H]3OCc3ccccc3)n2)cc1 [Compound 42] | 0.05 to 0.1
CCOC(=O)c1cc(C(=O)N[C@H]2CCCC[C@@H]2OCc2ccccc2)n(CC(=O)Nc2ncccc2Oc2ccccc2)n1 [Compound 200] | > 1
Cc1ccc(OCc2ccccc2)c(NC(=O)c2cc(NS(=O)(=O)c3ccc(Cl)cc3)nn2CC(=O)N[C@H]2CCCC[C@@H]2OCc2ccccc2)c1 [Compound 44] | 0.05 to 0.1
CC(=O)Nc1cc(C(=O)N[C@H]2CCCC[C@@H]2OCc2ccccc2)n(CC(=O)NC2CCCC[C@@H]2OCc2ccccc2)n1 (stereo partly shown) [Compound 196] | > 1
Cc1ccc(OCC2CCC2)c(NC(=O)c2cc(C(=O)O)nn2CC(=O)N[C@H]2CCCC[C@@H]2OCc2ccccc2)c1 [Compound 9] | < 0.05
O=C(Cn1nc(NS(=O)(=O)c2cccc(F)c2)cc1C(=O)N[C@H]1CCCC[C@@H]1OCc1ccccc1)N[C@H]1CCCC[C@@H]1OCc1ccccc1 [Compound 31] | 0.05 to 0.1
O=Cc1cc(C(=O)N[C@H]2CCCC[C@@H]2OCc2ccccc2)n(CC(=O)N[C@H]2CCCC[C@@H]2OCc2ccccc2)n1 [Compound 189] | > 1
Cc1ccc(OCC2CCCC2)c(NC(=O)c2cc(C(=O)O)nn2CC(=O)N[C@H]2CCCC[C@@H]2OCc2ccccc2)c1 [Compound 2] | < 0.05
CCOC(=O)c1cc(C(=O)N(C)[C@H]2CCCC[C@@H]2OCc2ccccc2)n(CC(=O)N[C@H]2CCCC[C@@H]2OCc2ccccc2)n1 [Compound 181] | > 1
Cc1ccc(OCC2CCC2)c(NC(=O)Cn2nc(C(=O)O)cc2C(=O)N[C@H]2CCCC[C@@H]2OCc2ccccc2)c1 [Compound 43] | 0.05 to 0.1
N#Cc1cc(C(=O)N[C@H]2CCCC[C@@H]2OCc2ccccc2)n(CC(=O)N[C@H]2CCCC[C@@H]2OCc2ccccc2)n1 (stereo in doubt) [Compound 187, 2-[(2-benzyloxy-cyclohexylcarbamoyl)-methyl]-5-cyano-2H-pyrazole-3-carboxylic acid (2-benzyloxy-cyclohexyl)-amide] | > 1
N#CNC(=O)c1cc(C(=O)N[C@H]2CCCC[C@@H]2OCc2ccccc2)n(CC(=O)N[C@H]2CCCC[C@@H]2OCc2ccccc2)n1 [Compound 15] | < 0.05
O=C(Cn1nc(C(=O)O)cc1C(=O)Nc1cc(Cl)ccc1OCC1CCCCC1)N[C@H]1CCCC[C@@H]1OCc1ccccc1 [Compound 3] | < 0.05
O=C(Cn1nc(C(=O)Nc2ccccc2-c2ccccc2)cc1C(=O)N[C@H]1CCCC[C@@H]1OCc1ccccc1)N[C@H]1CCCC[C@@H]1OCc1ccccc1 [Compound 179] | > 1
CC(C)NC(=O)c1cc(C(=O)N[C@H]2CCCC[C@@H]2OCc2ccccc2)n(CC(=O)N[C@H]2CCCC[C@@H]2OCc2ccccc2)n1 [Compound 163] | > 1

Same assay, conditions: Δ21 Activity (IC50 μM), 50 nM NS5B (Δ21), numeric values

SMILES | IC50 [µM]
Cc1ccc(OCC2CCCC2)c(NC(=O)c2cc(C(=O)O)nn2CC(=O)N[C@H]2CCCC[C@@H]2OCc2ccccc2)c1 [drawing 241] | 0.023
O=C(Cn1nc(C(=O)O)cc1C(=O)Nc1ccc(F)cc1OCC1CCCCC1)N[C@H]1CCCC[C@@H]1OCc1ccccc1 [drawing 249] | 0.035
N#CNC(=O)c1cc(C(=O)Nc2ccccc2OCc2ccccc2)n(CC(=O)N[C@H]2CCCC[C@@H]2OCc2ccccc2)n1 [drawing 245] | 0.024
Cc1ccc(OCc2ccccc2)c(NC(=O)c2cc(-c3nnn[nH]3)nn2CC(=O)N[C@H]2CCCC[C@@H]2OCc2ccccc2)c1 [drawing 240] | 0.02
